This experiment has as its target angiotensin-converting enzyme (ACE) (Homo sapiens, UniProt P12821). As to the kind of experiment: BioSelact on-line ACE inhibitor bioassay (Kiadis). The class given is biochemical. As to conditions: determined by the BioSelect method of Kiadis of aqueous extracts of the fat+cell fraction.

Experimental findings from patent US20080207529A1, “Isolated Dipeptides with Ace Inhibitor Effect” (CHR. HANSEN A/S, priority 2005, published 2008) are described below.

angiotensin-converting enzyme (ACE), sequence (P12821 30-1306, species assumed): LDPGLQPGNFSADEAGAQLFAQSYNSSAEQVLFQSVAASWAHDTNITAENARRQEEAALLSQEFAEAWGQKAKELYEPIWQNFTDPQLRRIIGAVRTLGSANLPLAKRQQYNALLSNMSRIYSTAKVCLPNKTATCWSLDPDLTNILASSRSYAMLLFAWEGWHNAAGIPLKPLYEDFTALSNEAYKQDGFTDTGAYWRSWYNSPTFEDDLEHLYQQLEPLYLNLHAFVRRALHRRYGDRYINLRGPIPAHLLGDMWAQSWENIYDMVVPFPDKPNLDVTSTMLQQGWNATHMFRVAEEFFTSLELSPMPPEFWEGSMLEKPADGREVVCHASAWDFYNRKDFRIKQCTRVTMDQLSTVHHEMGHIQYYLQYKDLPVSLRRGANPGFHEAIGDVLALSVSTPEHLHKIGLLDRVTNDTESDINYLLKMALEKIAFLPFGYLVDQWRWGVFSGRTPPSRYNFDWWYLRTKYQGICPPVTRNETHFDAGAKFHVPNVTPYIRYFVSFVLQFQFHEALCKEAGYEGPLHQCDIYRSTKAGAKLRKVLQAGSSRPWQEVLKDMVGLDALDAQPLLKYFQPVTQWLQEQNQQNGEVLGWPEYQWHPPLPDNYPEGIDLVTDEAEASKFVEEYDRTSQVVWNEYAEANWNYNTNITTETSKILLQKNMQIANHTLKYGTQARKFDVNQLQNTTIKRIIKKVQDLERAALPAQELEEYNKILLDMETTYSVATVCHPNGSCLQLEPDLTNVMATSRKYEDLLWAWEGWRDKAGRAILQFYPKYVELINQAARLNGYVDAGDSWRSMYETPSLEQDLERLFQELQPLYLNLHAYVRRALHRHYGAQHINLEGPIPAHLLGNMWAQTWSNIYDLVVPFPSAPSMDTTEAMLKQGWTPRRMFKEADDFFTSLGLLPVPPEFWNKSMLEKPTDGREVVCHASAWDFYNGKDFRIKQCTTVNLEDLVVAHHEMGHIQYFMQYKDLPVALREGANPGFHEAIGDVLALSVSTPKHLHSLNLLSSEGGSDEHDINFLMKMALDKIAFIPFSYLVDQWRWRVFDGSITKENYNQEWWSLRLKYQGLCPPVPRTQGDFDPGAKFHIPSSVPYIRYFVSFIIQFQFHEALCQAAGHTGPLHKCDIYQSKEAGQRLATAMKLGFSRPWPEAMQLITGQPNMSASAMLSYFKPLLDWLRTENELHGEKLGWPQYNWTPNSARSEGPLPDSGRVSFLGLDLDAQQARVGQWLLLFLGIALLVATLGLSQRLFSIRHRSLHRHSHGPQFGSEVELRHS
Experimental: Supernatants of whole fermentations, whey liquids, chloroform and aqueous extracts from fat/cell fractions were all pH adjusted before analysis. First the solutions were adjusted to pH 3. After centrifugation the precipitate was removed. During a second step the pH was adjusted to 7.5 (pH of bioassay). Again precipitate was removed from the solution after centrifugation. The remaining supernatants were used for BioSelact analysis.
250 mg of fat/cell preparation was extracted with 250 μl MilliQ. The solution was positioned on a flat shaker for 2 hours at room temperature. The fat/cell fraction was removed after extraction by centrifugation.
During the first step of the BioSelact analysis, the aqueous solutions were analyzed by applying a general chromatographic gradient: 5-95% MeOH/0.05% TFA in 75 min. For these general analyses a Phenomenex, LUNA C18(2), 5 μm, 2*250 mm analytical column was used. The chromatographic separation was carried out at a flow rate of 0.2 ml/min at ambient temperature. The injection volume was 250 μl. The organic modifier concentration in the Liquid Chromatography (LC) effluent was decreased to bioassay compatible levels by performing continuous dilution using the BioGradient composition from Kiadis. […]
After completing the first general chromatographic ‘sweep’, the presence of bioactivity in each sample was carefully assessed by the Kiadis ACE inhibitor assay. […]

For the substance Ile-Pro-Pro [IPP], the “Relative inhibition (relative ACE inhibitory activity)” value came out at 0.7%.
